# Reference: EPA's ToxValDB 9.5
# Key:
# [1] = system: Oryctolagus sp.; conditions: duration: 15 days, oral, F, New Zealand
# [2] = system: Monkey; conditions: oral, Cynomolgus
# [3] = reproduction developmental, Body Weight: 21% decreased mean maternal body weight gain on GDs 7-21 / no effect on food consumption
# [4] = chronic, duration: 26 weeks, M/F, Endocrine: Increased TSH and decreased total T3 + Hepatic: 47-55% increased absolute liver weight / 50-60% decreased serum cholesterol / …
smiles,measurement,setting,value
O=S(=O)([O-])C(F)(F)C(F)(F)C(F)(F)C(F)(F)C(F)(F)C(F)(F)C(F)(F)C(F)(F)F.[K+] [Potassium perfluorooctanesulfonate],NOAEL,"[1]; developmental, Developmental: Decreased fetal body weight / 10% at […] and 24% at 3.75 mg/kg/day / 10/22 does aborted between GD 22 and 28 at 3.75 mg/kg/…",1 mg/kg-day
same,LOAEL,[1]; [3],1 mg/kg-day
same,NOAEL,[1]; [3],0.1 mg/kg-day
same,NOAEL,"[2]; chronic, duration: 26 weeks, F",0.75 mg/kg-day
same,LOAEL,[2]; [4],0.75 mg/kg-day
same,NOAEL,[2]; [4],0.15 mg/kg-day
same,NOAEL,"[2]; chronic, duration: 26 weeks, M/F, Neurological: No histological alterations",0.75 mg/kg-day
same,NOAEL,"[2]; chronic, duration: 26 weeks, M, Body Weight: 13.5% reduction in final body weight",0.15 mg/kg-day
same,LOAEL,"[2]; chronic, duration: 26 weeks, M, Body Weight: 13.5% reduction in final body weight + Reproductive: Significant decrease in serum estradiol on days 62 (48%), 91 (42%), and …",0.75 mg/kg-day
same,NOAEL,"[2]; chronic, duration: 315 days, M",13.3 mg/kg-day
same,LOAEL,"[2]; chronic, duration: 315 days, M, Endocrine: Decreased serum T4 / values still within normal range + Hepatic: Decrease in HDL cholesterol / values still within normal range",13.3 mg/kg-day
same,NOAEL,"[2]; short-term, duration: 4 weeks, M/F, Immunotoxicological: No histological alteration + Reproductive: No histological alterations",2 mg/kg-day
